The source of these data is patent US20140148454A1, “SUBSTITUTED AMINO-ACRYLCARBOXAMIDES AS KCNQ2/3 MODULATORS” (GRÜNENTHAL GMBH, priority 2012, published 2014).

The assay concerns the target T1, KCNQ2/3 channels (Homo sapiens, UniProt O43525+O43526).
T1 construct: expressed in transfected cells; host or cells: CHO-K1 cells kept under selection antibiotics
Briefly: Fluorescence assay using a voltage sensitive dye (fluorimetry). The conditions noted are these: CHO-K1 cells expressing KCNQ2/3 channels; for Emax: relative to retigabine = 100%, read-out: Fluorimetry % efficacy (retigabine = 100%); for EC50: voltage-sensitive dye, read-out: Fluorimetry EC50/IC50. The class given is cell-based. The protocol: Method I. Fluorescence Assay Using a Voltage Sensitive Dye (Fluorimetry) […] CHO-K1 cells expressing KCNQ2/3 channels are cultivated adherently at 37° C., 5% CO2 and 95% humidity in cell culture bottles (e.g. 80 cm^2 TC flasks, Nunc) with DMEM-high glucose (Sigma Aldrich, D7777) including 10% FCS (PAN Biotech, e.g. 3302-P270521) or alternatively MEM Alpha Medium (1×, liquid, Invitrogen, #22571), 10% fetal calf serum (FCS) (Invitrogen, #10270-106, heat-inactivated) and the necessary selection antibiotics.
Before being sown out for the measurements, the cells are washed with 1×DPBS buffer Ca^2+/Mg^2+-free (e.g. Invitrogen, #14190-094) and detached from the bottom of the culture vessel by using Accutase (PAA Laboratories, #L11-007) (incubation with Accutase for 15 min at 37° C.). The cell number is determined using a CASY™ cell counter (TCC, Scharfe System). Depending on the optimal density for each individual cell line, 20,000-30,000 cells/well/100 μl are seeded onto 96-well Corning™ CeIIBIND™ assay plates (Flat Clear Bottom Black Polystyrene Microplates, #3340). Freshly seeded cells are then left to settle for one hour at room temperature, followed by incubation for 24 hours at 37° C., 5% CO2 and 95% humidity.
The voltage-sensitive fluorescent dye from the Membrane Potential Assay Kit (Red™ Bulk format part R8123 for FLIPR, MDS Analytical Technologies™) is prepared by dissolving the contents of one vessel Membrane Potential Assay Kit Red Component A in 200 ml of extracellular buffer (ES buffer, 120 mM NaCl, 1 mM KCl, 10 mM HEPES, 2 mM CaCl2, 2 mM MgCl2, 10 mM glucose; pH 7.4). After removal of the nutrient medium, the cells are washed once with 200 μl of ES buffer, then loaded for 45 min at room temperature in 100 μl of dye solution in the dark.
Fluorescence measurements are carried out in a BMG Labtech FLUOstar™, BMG Labtech NOVOstar™ or BMG Labtech POLARstar™ instrument (525 nm excitation, 560 nm emission, Bottom Read mode). After incubation with the dye, 50 μl of the test substances in the desired concentrations, or 50 μl of ES buffer for control purposes, are applied to the wells of the assay plate and incubated for 30 min at room temperature while being shielded from light. The fluorescence intensity of the dye is then measured for 5 min and the fluorescence value F1 of each well is thus determined at a given, constant time. 15 μl of a KCl solution are then added to each well (final concentration of potassium ions 92 mM). The change in fluorescence intensity is subsequently monitored until all the relevant values have been obtained (mainly 5-30 min). At a given time post KCl application, a fluorescence value F2 is determined, in this case at the time of the fluorescence peak.
For calculation, the fluorescence intensity F2 is corrected for the fluorescence intensity F1, and the activity (ΔF/F) of the target compound on the potassium channel is determined as follows:
In order to determine whether a substance has agonistic activity, is determined by adding to the well only the buffer solution instead of the test substance, determining the value F1K of the fluorescence intensity, adding the potassium ions as described above, and measuring a value F2K of the fluorescence intensity. F2K and F1K are then calculated as follows: […]
A substance has an agonistic activity on the potassium channel if it is possible to conclude that a target compound has agonistic activity if Calculations of EC50 and IC50 values are carried out with the aid of ‘Prism v4.0’ software (GraphPad Software™).

Regarding `CC(NC(=O)c1sc(N(C)C2CCOCC2)nc1C(F)(F)F)c1cccc(OC(F)(F)F)c1` (centres unmarked) [Example 35, 2-(Methyl-tetrahydro-pyran-4-yl-amino)-4-(trifluoromethyl)-N-[1-[3-(trifluoromethyloxy)-phenyl]-ethyl]-thiazole-5-carboxylic acid amide], the Emax worked out at 131% and the EC50 worked out at 1260 nM.
For `CCC(C)c1nc(N2CCOCC2)cnc1C(=O)NCc1ccc(Cl)cc1` (centres unmarked) [Example 20, N-[(4-Chlorophenyl)-methyl]-3-(1-methyl-propyl)-5-morpholin-4-yl-pyrazine-2-carboxylic acid amide], in that order: 88% and 217 nM.
The corresponding values for `CCSc1cc(N2CCOC[C@H]2C)nc(C)c1C(=O)NCCCC(C)(C)C` [Example 15, N-(4,4-Dimethyl-pentyl)-4-ethylsulfanyl-2-methyl-6-[(3R)-3-methyl-morpholin-4-yl]-pyridine-3-carboxylic acid amide] are 247% and 82 nM.
For `CC(C)c1nc(N(C)CC2CCOCC2)sc1C(=O)NC(C)c1cccc(OC(F)(F)F)c1` (centres unmarked) [Example 22, 4-Isopropyl-2-[methyl-(tetrahydro-pyran-4-yl-methyl)-amino]-N-[1-[3-(trifluoromethyloxy)-phenyl]-ethyl]-thiazole-5-carboxylic acid amide], in that order: 78% and 459 nM.
With `CCSc1cc(N2CCOCC2)nc(C)c1C(=O)NCc1ccc(F)cc1` [Example 12, 4-Ethylsulfanyl-N-[(4-fluorophenyl)-methyl]-2-methyl-6-morpholin-4-yl-pyridine-3-carboxylic acid amide], the Emax was 145% and the EC50 came to 1470 nM.
Turning to `CCOc1cc(N2CCOCC2)nc(C)c1C(=O)NCCCC(C)(C)C` [Example 5, N-(4,4-Dimethyl-pentyl)-4-ethoxy-2-methyl-6-morpholin-4-yl-pyridine-3-carboxylic acid amide], the Emax is 218% and the EC50 turned out to be 1350 nM.
The corresponding values for `CC(C)c1nc(N2CCOCC2)cnc1C(=O)NCc1ccc(Cl)cc1` [Example 7, N-[(4-Chlorophenyl)-methyl]-3-isopropyl-5-morpholin-4-yl-pyrazine-2-carboxylic acid amide] are 109% and 482 nM.
For `CC(C)c1nc(N(C)C2CCOCC2)sc1C(=O)NCc1ccc(Cl)cc1` [Example 23, N-[(4-Chlorophenyl)-methyl]-4-isopropyl-2-(methyl-tetrahydro-pyran-4-yl-amino)-thiazole-5-carboxylic acid amide], in that order: 98% and 1140 nM.
On to `CCSc1cc(N2CCOCC2)nc(C)c1C(=O)NCc1ccc(Cl)cc1` [Example 3, N-[(4-Chlorophenyl)-methyl]-4-ethylsulfanyl-2-methyl-6-morpholin-4-yl-pyridine-3-carboxylic acid amide], for which the Emax was 171% and the EC50 was 564 nM.
On to `CC(C)c1nc(N2CCOCC2)sc1C(=O)NCc1ccc(Cl)cc1` [Example 25, N-[(4-Chlorophenyl)-methyl]-4-isopropyl-2-morpholin-4-yl-thiazole-5-carboxylic acid amide], for which the Emax turned out to be 48% and the EC50 was found to be 1260 nM.
For `CCSc1nc(N2CCOCC2)nc(C)c1C(=O)NCc1ccc(Cl)cc1` [Example 1, N-[(4-Chlorophenyl)-methyl]-4-ethylsulfanyl-6-methyl-2-morpholin-4-yl-pyrimidine-5-carboxylic acid amide], in that order: 137% and 136 nM.
The corresponding values for `Cc1nc(N2CCOCC2)cc(C2CC2)c1C(=O)NCc1ccc(Cl)cc1` [Example 16, N-[(4-Chlorophenyl)-methyl]-4-cyclopropyl-2-methyl-6-morpholin-4-yl-pyridine-3-carboxylic acid amide] are 178% and 1420 nM.
For `CN(c1nc(C(F)(F)F)c(C(=O)NCc2ccc(Cl)cc2)s1)C1CCOCC1` [Example 38, N-[(4-Chlorophenyl)-methyl]-2-(methyl-tetrahydro-pyran-4-yl-amino)-4-(trifluoromethyl)-thiazole-5-carboxylic acid amide], in that order: 102% and 1260 nM.
Take `CCSc1nc(N2CCOCC2)nc(C)c1C(=O)NCc1cccc(F)c1` [Example 10, 4-Ethylsulfanyl-N-[(3-fluorophenyl)-methyl]-6-methyl-2-morpholin-4-yl-pyrimidine-5-carboxylic acid amide]: the Emax was 165% and the EC50 was found to be 140 nM.
In the case of `Cc1nc(N2CCOCC2)cc(C(C)C)c1C(=O)NCc1ccc(Cl)cc1` [Example 17, N-[(4-Chlorophenyl)-methyl]-4-isopropyl-2-methyl-6-morpholin-4-yl-pyridine-3-carboxylic acid amide], the Emax came to 180% and the EC50 worked out at 499 nM.
On to `COc1nc(N2CCOCC2)nc(OC)c1C(=O)NCc1ccc(Cl)cc1` [Example 2, N-[(4-Chlorophenyl)-methyl]-4,6-dimethoxy-2-morpholin-4-yl-pyrimidine-5-carboxylic acid amide], for which the Emax was 147% and the EC50 was determined as 315 nM.
For `CC(C)c1nc(N(C)C2CCOCC2)sc1C(=O)NC(C)c1cccc(OC(F)(F)F)c1` (centres unmarked) [Example 9, 4-Isopropyl-2-(methyl-tetrahydro-pyran-4-yl-amino)-N-[1-[3-(trifluoromethyloxy)-phenyl]ethyl]-thiazole-5-carboxylic acid amide], in that order: 104% and 379 nM.
The corresponding values for `CCSc1cc(N2CCOC[C@H]2C)nc(C)c1C(=O)NCc1ccc(Cl)cc1` [Example 14, N-[(4-Chlorophenyl)-methyl]-4-ethylsulfanyl-2-methyl-6-[(3R)-3-methyl-morpholin-4-yl]-pyridine-3-carboxylic acid amide] are 176% and 194 nM.
The corresponding values for `CCSc1cc(N2CCOCC2)nc(C)c1C(=O)NCCCC(C)(C)C` [Example 13, N-(4,4-Dimethyl-pentyl)-4-ethylsulfanyl-2-methyl-6-morpholin-4-yl-pyridine-3-carboxylic acid amide] are 241% and 319 nM.
For `CCC(C)c1nc(N2CCOCC2)cnc1C(=O)NCCC1CCCC1` (centres unmarked) [Example 21, N-(2-Cyclopentyl-ethyl)-3-(1-methyl-propyl)-5-morpholin-4-yl-pyrazine-2-carboxylic acid amide], the Emax stood at 132% and the EC50 is 1050 nM.
For `CC(NC(=O)c1sc(N2CCOCC2)nc1C(F)(F)F)c1cccc(OC(F)(F)F)c1` (centres unmarked) [Example 40, 2-Morpholin-4-yl-4-(trifluoromethyl)-N-[1-[3-(trifluoromethyloxy)-phenyl]ethyl]-thiazole-5-carboxylic acid amide], in that order: 78% and 1280 nM.
The corresponding values for `CN(c1nc(C(F)(F)F)c(C(=O)NCc2cccc(OC(F)(F)F)c2)s1)C1CCOCC1` [Example 36, 2-(Methyl-tetrahydro-pyran-4-yl-amino)-4-(trifluoromethyl)-N-[[3-(trifluoromethyloxy)-phenyl]-methyl]-thiazole-5-carboxylic acid amide] are 125% and 1100 nM.
